Earlier results as cited in patent US11739076B2, “Compound or its salt thereof targeting fibroblast activation protein, its preparation methods and its uses thereof” (Institute of Nuclear Energy Research Atomic Energy Council, …, priority 2021, dated 2023).

Tests used:
tumor = settings: in vivo

| binding ratio of FAP and DDP4 (FAP and DDP4) | accumulation in the oral mucosa, salivary glands and thyroid glands (tumor; po) | SMILES | tumor uptake and tumor-to-tissue ratio (tumor) |
| --- | --- | --- | --- |
| 45 | – | N#C[C@@H]1CCCN1C(=O)CNC(=O)c1ccnc2ccc(OCCCN3CCN(C(=O)CN4CCN(CC(=O)O)CCN(CC(=O)O)CCN(CC(=O)O)CC4)CC3)cc12 [FAPI-02] | – |
| 750 | – | N#C[C@@H]1CC(F)(F)CN1C(=O)CNC(=O)c1ccnc2ccc(OCCCN3CCN(C(=O)CN4CCN(CC(=O)O)CCN(CC(=O)O)CCN(CC(=O)O)CC4)CC3)cc12 [FAPI-04] | – |
| – | does not | CN(CCCN1CCN(C(=O)CN2CCN(CC(=O)O)CCN(CC(=O)O)CCN(CC(=O)O)CC2)CC1)c1ccc2nccc(C(=O)NCC(=O)N3CC(F)(F)C[C@H]3C#N)c2c1 [FAPI-46] | excellent tumor uptake and high tumor-to-tissue ratio |
